Measured values from ChEMBL document CHEMBL5678818, “Discovery of potent SOS1 inhibitors that block RAS activation via disruption of the RAS-SOS1 interaction” (Proc Natl Acad Sci U S A, 2019).

Tests used:
[1] = target: T1, Aurora kinase A (Homo sapiens) (UniProt O14965); test: Inhibition of AURKA (unknown origin) assessed as residual activity at 100 nM by KINOMEscan analysis relative to control
T1 sequence (whole entry): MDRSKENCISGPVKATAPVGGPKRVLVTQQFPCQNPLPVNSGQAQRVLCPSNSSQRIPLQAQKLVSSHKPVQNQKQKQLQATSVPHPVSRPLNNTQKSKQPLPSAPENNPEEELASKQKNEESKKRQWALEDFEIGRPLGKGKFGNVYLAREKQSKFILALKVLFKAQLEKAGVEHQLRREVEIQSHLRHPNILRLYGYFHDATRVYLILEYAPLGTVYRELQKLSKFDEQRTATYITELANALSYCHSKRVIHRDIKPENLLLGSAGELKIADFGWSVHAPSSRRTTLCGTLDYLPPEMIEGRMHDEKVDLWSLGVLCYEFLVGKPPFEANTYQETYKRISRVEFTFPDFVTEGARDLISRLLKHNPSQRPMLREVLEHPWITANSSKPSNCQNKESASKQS

[2] = target: T2, Serine/threonine-protein kinase 17B (Homo sapiens) (UniProt O94768); test: Inhibition of DRAK2 (unknown origin) assessed as residual activity at 100 nM by KINOMEscan analysis relative to control
T2 sequence (whole entry): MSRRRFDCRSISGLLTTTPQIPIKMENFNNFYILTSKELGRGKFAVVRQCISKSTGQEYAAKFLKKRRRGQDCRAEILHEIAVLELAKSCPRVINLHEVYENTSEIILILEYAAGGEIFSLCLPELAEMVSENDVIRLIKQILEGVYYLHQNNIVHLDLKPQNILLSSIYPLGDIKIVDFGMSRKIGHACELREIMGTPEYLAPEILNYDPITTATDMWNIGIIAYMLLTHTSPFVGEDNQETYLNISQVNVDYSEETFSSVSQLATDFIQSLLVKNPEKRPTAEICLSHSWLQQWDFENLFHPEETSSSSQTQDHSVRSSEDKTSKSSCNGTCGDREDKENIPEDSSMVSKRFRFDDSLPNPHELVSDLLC

[3] = target: Myosin light chain kinase 2, skeletal/cardiac muscle (Homo sapiens) (UniProt Q9H1R3); test: Inhibition of MYLK2 (unknown origin) assessed as residual activity at 100 nM by KINOMEscan analysis relative to control
Chain of Myosin light chain kinase 2, skeletal/cardiac muscle (Homo sapiens) (Q9H1R3 whole entry): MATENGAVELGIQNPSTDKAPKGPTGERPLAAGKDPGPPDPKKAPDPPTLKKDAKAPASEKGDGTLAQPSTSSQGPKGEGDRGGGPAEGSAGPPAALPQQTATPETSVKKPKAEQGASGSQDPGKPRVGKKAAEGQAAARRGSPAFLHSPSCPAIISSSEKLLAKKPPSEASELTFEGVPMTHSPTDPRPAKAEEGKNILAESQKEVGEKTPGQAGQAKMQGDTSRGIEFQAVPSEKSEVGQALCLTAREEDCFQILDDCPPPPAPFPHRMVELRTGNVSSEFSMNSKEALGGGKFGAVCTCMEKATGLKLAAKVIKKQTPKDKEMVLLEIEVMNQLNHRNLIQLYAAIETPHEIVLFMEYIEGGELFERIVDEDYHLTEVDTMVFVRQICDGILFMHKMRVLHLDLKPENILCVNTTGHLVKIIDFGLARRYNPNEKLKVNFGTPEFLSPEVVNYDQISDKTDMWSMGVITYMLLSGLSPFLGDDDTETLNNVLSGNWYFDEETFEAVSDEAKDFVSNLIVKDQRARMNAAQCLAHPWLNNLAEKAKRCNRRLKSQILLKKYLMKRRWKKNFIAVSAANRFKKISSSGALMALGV

[4] = target: Tyrosine-protein kinase Srms (Homo sapiens) (UniProt Q9H3Y6); test: Inhibition of SRMS (unknown origin) assessed as residual activity at 100 nM by KINOMEscan analysis relative to control
Chain of Tyrosine-protein kinase Srms (Homo sapiens) (Q9H3Y6 whole entry, canonical isoform): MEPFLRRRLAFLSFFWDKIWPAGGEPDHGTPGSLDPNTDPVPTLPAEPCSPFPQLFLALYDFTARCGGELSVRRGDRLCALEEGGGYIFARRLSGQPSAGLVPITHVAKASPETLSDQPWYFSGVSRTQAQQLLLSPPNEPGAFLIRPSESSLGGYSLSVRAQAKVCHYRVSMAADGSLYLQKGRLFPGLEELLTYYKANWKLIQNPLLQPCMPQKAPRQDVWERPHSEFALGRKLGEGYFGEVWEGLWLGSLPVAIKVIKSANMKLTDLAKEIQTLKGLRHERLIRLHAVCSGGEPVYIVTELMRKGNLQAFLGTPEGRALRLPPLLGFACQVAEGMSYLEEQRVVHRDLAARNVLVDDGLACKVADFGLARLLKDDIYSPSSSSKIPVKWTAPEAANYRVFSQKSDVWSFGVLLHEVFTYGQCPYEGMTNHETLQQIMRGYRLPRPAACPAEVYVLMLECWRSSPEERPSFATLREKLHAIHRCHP

[5] = target: Phosphatidylinositol 4,5-bisphosphate 3-kinase catalytic subunit gamma isoform (Homo sapiens) (UniProt P48736); test: Inhibition of PIK3CG (unknown origin) assessed as residual activity at 100 nM by KINOMEscan analysis relative to control
Chain of Phosphatidylinositol 4,5-bisphosphate 3-kinase catalytic subunit gamma isoform (Homo sapiens) (P48736 whole entry, looked up, the tested form may be a part, canonical isoform): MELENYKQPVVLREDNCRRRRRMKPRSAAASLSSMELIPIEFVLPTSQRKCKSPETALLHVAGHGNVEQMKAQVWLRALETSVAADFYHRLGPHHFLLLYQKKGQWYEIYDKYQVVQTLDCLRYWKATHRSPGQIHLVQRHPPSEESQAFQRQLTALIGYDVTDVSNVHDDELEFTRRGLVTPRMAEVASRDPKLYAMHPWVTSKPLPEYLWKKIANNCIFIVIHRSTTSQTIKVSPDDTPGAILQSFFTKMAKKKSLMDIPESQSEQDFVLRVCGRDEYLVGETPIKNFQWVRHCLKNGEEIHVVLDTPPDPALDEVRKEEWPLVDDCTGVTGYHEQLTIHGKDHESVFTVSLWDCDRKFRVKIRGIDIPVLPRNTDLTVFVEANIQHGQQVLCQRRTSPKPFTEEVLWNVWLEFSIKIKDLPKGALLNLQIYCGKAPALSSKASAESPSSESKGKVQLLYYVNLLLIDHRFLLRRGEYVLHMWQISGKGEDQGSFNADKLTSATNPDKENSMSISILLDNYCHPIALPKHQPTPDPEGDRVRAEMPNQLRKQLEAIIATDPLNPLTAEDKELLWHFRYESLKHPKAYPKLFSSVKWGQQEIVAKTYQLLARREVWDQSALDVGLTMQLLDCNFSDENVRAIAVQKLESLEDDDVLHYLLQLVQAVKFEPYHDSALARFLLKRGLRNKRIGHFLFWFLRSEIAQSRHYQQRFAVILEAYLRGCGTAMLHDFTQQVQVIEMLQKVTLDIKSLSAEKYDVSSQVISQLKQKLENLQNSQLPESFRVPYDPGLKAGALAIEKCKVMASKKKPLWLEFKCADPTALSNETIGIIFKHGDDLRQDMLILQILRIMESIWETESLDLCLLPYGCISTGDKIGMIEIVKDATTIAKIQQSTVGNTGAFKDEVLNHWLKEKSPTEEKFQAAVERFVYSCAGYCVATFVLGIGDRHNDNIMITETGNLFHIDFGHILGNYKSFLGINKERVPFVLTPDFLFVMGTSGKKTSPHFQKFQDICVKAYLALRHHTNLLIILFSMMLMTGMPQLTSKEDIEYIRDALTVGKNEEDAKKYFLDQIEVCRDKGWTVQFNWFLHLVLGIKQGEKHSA

Homo sapiens = species on record: Homo sapiens; test: Inhibition of C-terminal RPS6KA4 kinetic domain 2 (unknown origin) assessed as residual activity at 100 nM by KINOMEscan analysis relative to control
[6] = target: cAMP-dependent protein kinase catalytic subunit beta (Homo sapiens) (UniProt P22694); test: Inhibition of PKAC-beta (unknown origin) assessed as residual activity at 100 nM by KINOMEscan analysis relative to control
[7] = target: Glycogen synthase kinase-3 beta (Homo sapiens) (UniProt P49841); test: Inhibition of GSK3B (unknown origin) assessed as residual activity at 100 nM by KINOMEscan analysis relative to control
Chain of Glycogen synthase kinase-3 beta (Homo sapiens) (P49841 whole entry, looked up): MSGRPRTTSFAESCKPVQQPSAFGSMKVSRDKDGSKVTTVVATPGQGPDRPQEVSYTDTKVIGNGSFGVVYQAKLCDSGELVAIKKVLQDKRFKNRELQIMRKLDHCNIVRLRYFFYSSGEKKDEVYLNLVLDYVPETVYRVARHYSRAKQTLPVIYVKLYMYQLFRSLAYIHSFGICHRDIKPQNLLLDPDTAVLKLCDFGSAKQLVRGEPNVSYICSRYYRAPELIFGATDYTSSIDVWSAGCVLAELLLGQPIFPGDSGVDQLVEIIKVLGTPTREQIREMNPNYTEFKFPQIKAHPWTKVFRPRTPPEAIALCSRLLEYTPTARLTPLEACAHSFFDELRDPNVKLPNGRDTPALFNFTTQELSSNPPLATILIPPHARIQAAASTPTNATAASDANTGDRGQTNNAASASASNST

[8] = target: T3, Cyclin-G-associated kinase (Homo sapiens) (UniProt O14976); test: Inhibition of GAK (unknown origin) assessed as residual activity at 100 nM by KINOMEscan analysis relative to control
T3 sequence (whole entry): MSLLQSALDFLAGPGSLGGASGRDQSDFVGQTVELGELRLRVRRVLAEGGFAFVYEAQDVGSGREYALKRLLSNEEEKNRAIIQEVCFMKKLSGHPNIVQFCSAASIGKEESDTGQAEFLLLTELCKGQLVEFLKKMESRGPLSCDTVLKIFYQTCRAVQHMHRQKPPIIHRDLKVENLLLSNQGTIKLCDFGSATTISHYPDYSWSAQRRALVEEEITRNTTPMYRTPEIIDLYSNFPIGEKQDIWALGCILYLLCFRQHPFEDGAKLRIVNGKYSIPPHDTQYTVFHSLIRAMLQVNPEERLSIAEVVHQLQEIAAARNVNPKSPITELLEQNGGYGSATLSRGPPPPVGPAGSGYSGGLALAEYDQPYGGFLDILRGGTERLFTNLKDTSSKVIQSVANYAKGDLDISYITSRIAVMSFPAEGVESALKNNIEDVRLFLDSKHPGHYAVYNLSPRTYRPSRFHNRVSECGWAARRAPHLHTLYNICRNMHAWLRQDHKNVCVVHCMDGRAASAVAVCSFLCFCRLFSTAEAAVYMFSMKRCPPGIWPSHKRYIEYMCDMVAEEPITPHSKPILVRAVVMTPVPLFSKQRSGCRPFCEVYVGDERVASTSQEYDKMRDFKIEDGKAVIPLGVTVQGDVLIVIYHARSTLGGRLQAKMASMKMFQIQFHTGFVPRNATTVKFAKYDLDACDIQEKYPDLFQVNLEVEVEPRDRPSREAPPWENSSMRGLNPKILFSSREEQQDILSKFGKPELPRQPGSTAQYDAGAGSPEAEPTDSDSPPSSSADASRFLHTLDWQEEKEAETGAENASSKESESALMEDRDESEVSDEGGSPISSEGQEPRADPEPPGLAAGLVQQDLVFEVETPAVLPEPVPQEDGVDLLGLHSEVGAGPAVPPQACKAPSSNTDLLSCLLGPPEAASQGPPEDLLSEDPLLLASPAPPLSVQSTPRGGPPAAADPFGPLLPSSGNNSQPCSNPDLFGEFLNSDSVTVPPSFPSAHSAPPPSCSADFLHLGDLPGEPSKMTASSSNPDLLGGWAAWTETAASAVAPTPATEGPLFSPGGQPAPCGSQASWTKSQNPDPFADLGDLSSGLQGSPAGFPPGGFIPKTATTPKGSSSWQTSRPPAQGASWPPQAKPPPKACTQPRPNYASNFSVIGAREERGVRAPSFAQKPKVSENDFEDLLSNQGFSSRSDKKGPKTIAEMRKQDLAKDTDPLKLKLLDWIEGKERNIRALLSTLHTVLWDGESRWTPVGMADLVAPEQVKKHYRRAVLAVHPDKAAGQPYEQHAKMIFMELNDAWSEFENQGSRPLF

COc1cc2ncnc(N[C@H](C)c3cccc4ccccc34)c2cc1OC
Activity [1]: 100% | Activity [2]: 100% | Activity [3]: 90% | Activity [4]: 79% | Activity [5]: 78% | Activity (Homo sapiens): 87% | Activity [6]: 88% | Activity [7]: 94% | Activity [8]: 100%
